# In article PMC9738727, “Purification and Characterization of Novel Anti-MRSA Peptides Produced by Brevibacillus sp. SPR-20” (Molecules, 2022):
# Ends that are not written are not given here.
# How the values were obtained:
# MRSA isolate 2468 [1] = assay: microbe, parasite or virus in culture; format: cell-based, Staphylococcus aureus; details: P1 at 15 µg/mL, from vancomycin standard curve
# Experimental: (§1) The antimicrobial activity was measured by an agar well diffusion test with some modified methods. In brief, single colonies of the tested strains were suspended in 0.85% NaCl, and then the OD at 625 nm was adjusted to 0.1. The cell suspensions were spread on MH agar, and the tested samples (100 μL) were introduced into each well before incubation at 37 °C for 24 h. Each experiment was performed in three independent replicates, and the inhibition zone was measured and expressed as mean ± SD.
# (§2) The agar well diffusion test was performed in triplicate for potency determination, using S. aureus TISTR 517 and MRSA isolate 2468 as the tested bacteria. […] The remaining standard and sample solutions were transferred to the other 3 wells. The plates were incubated at 37 °C for 18 h.
# S. aureus TISTR 517 [2] = assay: microbe, parasite or virus in culture; format: cell-based, Staphylococcus aureus; details: P1 at 15 µg/mL, from vancomycin standard curve
# Experimental: as §1, §2
# MRSA isolate 2468 [3] = assay: Thermal, surfactant and pH stability, remaining activity by agar well diffusion; format: physicochemical, Staphylococcus aureus; details: P1 15 μg/mL, vancomycin 300 μg/mL, mean ± SD, n=3
# Experimental: as §1
# (§3) The stability of the anti-MRSA peptide against several conditions was studied. […] The sensitivity of the peptide sample to proteolytic enzymes was investigated by incubating the sample with proteinase K, trypsin, and α-chymotrypsin (1 mg/mL) for 1 h. Surfactant compatibility of the substance was examined by incubating the sample with 1% SDS and 1% Triton X-100 for 1 h (AppliChem GmbH, Darmstadt, Germany). The acid and base hydrolysis property of the substance was assessed by pH adjustment to 2–14 for 1 h before the samples were neutralized to pH 7. After all treatments, the antimicrobial assay by agar well diffusion against S. aureus TISTR 517 and MRSA isolate 2468 was performed in three independent experiments. The stability profiles were presented as the percentage of activity relative to the untreated condition (mean ± SD), and significant difference was determined by the Student’s t-test at a p-value < 0.05.
# S. aureus TISTR 517 [4] = assay: as above; format: physicochemical, Staphylococcus aureus; details: for % Remaining Activity: P1 15 μg/mL, vancomycin 300 μg/mL, mean ± SD, n=3
# Experimental: as §1, §3
# MRSA isolate 2468 [5] = assay: Killing kinetics; format: cell-based, Staphylococcus aureus; details: for killing half-time / rate constant of cell death within 24 h: linear regression
# Experimental: (§4) S. aureus TISTR 517 and MRSA isolate 2468 were cultured in CAMHB and standardized to obtain the cell number of 5 × 10^5 CFU/mL for initial treatment. […] The reactions were incubated at 37 °C, and then the total volume was spread on MH agar at specific time intervals (0–24 h). The plates were incubated at 37 °C for 24 h before colony count. […] The rate constant of cell death within 24 h and the killing half-time were calculated based on slope and linear regression relationship, respectively. Each experiment was performed in triplicate in 96-well plates. Significant differences (p-value < 0.05) were analyzed by two-way ANOVA and post hoc Tukey’s test for multiple comparisons between treated and non-treated samples.
# S. aureus TISTR 517 [6] = assay: Killing kinetics; format: cell-based, Staphylococcus aureus; details: for killing half-time / rate constant of cell death within 24 h: linear regression; for time of eradication effect: strain not named in the sentence (tested bacteria)
# Experimental: as §4
# MRSA isolate 2468 [7] = assay: Cell lysis (OD 625 nm), leakage of genetic materials (A260) and viable count; format: cell-based, Staphylococcus aureus; details: for cell lysis (OD 625 nm reduction): within 1 h, PBS pH 7.4 + 4% CAMHB, mean ± SD, triplicate
# Experimental: (§5) The lysis of bacterial cells was monitored by measuring the OD reduction at 625 nm, whereas the leakage of genetic material was evaluated by measuring the absorbance at 260 nm. Briefly, the bacterial colonies were collected from MH agar and then washed with PBS pH 7.4 three times. The OD at 625 nm of the washed cells was adjusted to 0.35 with PBS pH 7.4 supplemented with an incomplete medium (4% CAMHB) before the cells were transferred to a 96-well plate (100 μL/well). […] For each treatment condition at different time intervals, the reduction in OD at 625 nm was determined, and the supernatant of the treated samples was collected to measure the absorbance at 260 nm. The experiment was performed in triplicate, and the results were expressed as mean ± SD. Two-way ANOVA and post hoc Tukey’s test (p-value < 0.05) were used to determine the significance of differences between treated and non-treated samples.
# S. aureus TISTR 517 [8] = assay: as above; format: cell-based, Staphylococcus aureus
# Experimental: as §5
# [9] = 60 °C, 1 h, % of untreated sample
# [10] = 80 °C, 1 h, % of untreated sample
# [11] = 100 °C, 1 h, % of untreated sample
# [12] = […], 15 psi, 15 min (autoclave), % of untreated sample
# [13] = pH 2, 1 h, then neutralized to pH 7
# [14] = pH 4, 1 h, then neutralized to pH 7
# [15] = pH 5, 1 h, then neutralized to pH 7
# [16] = pH 6, 1 h, then neutralized to pH 7
# [17] = pH 8, 1 h, then neutralized to pH 7
# [18] = pH 9, 1 h, then neutralized to pH 7
# [19] = pH 11, 1 h, then neutralized to pH 7
# [20] = pH 12, 1 h, then neutralized to pH 7
# [21] = pH 13, 1 h, then neutralized to pH 7
# [22] = pH 14, 1 h, then neutralized to pH 7
# [23] = sample + 1% SDS, 1 h, % of untreated sample
# [24] = sample + 1% Triton X-100, 1 h, % of untreated sample
sequence,measurement,setting,value
VVVNVLVKVLPPPVV [Peptide P1],vancomycin concentration of equivalent potency,MRSA isolate 2468 [1],85.97 to 109.05 µg/mL
same,vancomycin concentration of equivalent potency,S. aureus TISTR 517 [2],76.29 to 87.36 µg/mL
same,% Remaining Activity,MRSA isolate 2468 [3]; [9],100.00 ± 0.79%
same,% Remaining Activity,MRSA isolate 2468 [3]; [10],99.08 ± 0.00%
same,% Remaining Activity,MRSA isolate 2468 [3]; [11],98.62 ± 0.79%
same,% Remaining Activity,MRSA isolate 2468 [3]; [12],98.62 ± 0.79%
same,% Remaining Activity,MRSA isolate 2468 [3]; [13],97.57 ± 1.46%
same,% Remaining Activity,MRSA isolate 2468 [3]; [14],99.03 ± 1.46%
same,% Remaining Activity,MRSA isolate 2468 [3]; [15],97.09 ± 1.68%
same,% Remaining Activity,MRSA isolate 2468 [3]; [16],97.57 ± 3.85%
same,% Remaining Activity,"MRSA isolate 2468 [3]; pH 7, 1 h",97.57 ± 5.25%
same,% Remaining Activity,MRSA isolate 2468 [3]; [17],97.09 ± 2.22%
same,% Remaining Activity,MRSA isolate 2468 [3]; [18],98.03 ± 1.71%
same,% Remaining Activity,MRSA isolate 2468 [3]; [19],98.03 ± 2.26%
same,% Remaining Activity,MRSA isolate 2468 [3]; [20],97.54 ± 0.00%
same,% Remaining Activity,MRSA isolate 2468 [3]; [21],99.51 ± 0.85%
same,% Remaining Activity,MRSA isolate 2468 [3]; [22],100.00 ± 3.08%
same,% Remaining Activity,MRSA isolate 2468 [3]; [23],117.13 ± 1.60 %
same,% Remaining Activity,MRSA isolate 2468 [3]; [24],115.74 ± 0.80 %
same,% Remaining Activity,S. aureus TISTR 517 [4]; [9],100.49 ± 0.84%
same,% Remaining Activity,S. aureus TISTR 517 [4]; [10],100.00 ± 0.84%
same,% Remaining Activity,S. aureus TISTR 517 [4]; [11],100.00 ± 0.84%
same,% Remaining Activity,S. aureus TISTR 517 [4]; [12],98.54 ± 1.69%
same,% Remaining Activity,S. aureus TISTR 517 [4]; [13],98.48 ± 3.17%
same,% Remaining Activity,S. aureus TISTR 517 [4]; [14],97.97 ± 5.77%
same,% Remaining Activity,S. aureus TISTR 517 [4]; [15],97.46 ± 2.64%
same,% Remaining Activity,S. aureus TISTR 517 [4]; [16],97.97 ± 3.17%
same,% Remaining Activity,"S. aureus TISTR 517 [4]; pH 7, 1 h",97.97 ± 1.76%
same,% Remaining Activity,S. aureus TISTR 517 [4]; [17],102.54 ± 3.17%
same,% Remaining Activity,S. aureus TISTR 517 [4]; [18],100.00 ± 1.49%
same,% Remaining Activity,S. aureus TISTR 517 [4]; [19],98.01 ± 2.28%
same,% Remaining Activity,S. aureus TISTR 517 [4]; [20],96.52 ± 2.28%
same,% Remaining Activity,S. aureus TISTR 517 [4]; [21],98.51 ± 1.49%
same,% Remaining Activity,S. aureus TISTR 517 [4]; [22],101.00 ± 1.72%
same,% Remaining Activity,S. aureus TISTR 517 [4]; [23],114.49 ± 3.53 %
same,% Remaining Activity,S. aureus TISTR 517 [4]; [24],125.23 ± 2.92 %
same,activity remaining under several stress conditions,"S. aureus TISTR 517 [4]; text summary of Table 6, both test strains",over 90%
same,killing half-time,MRSA isolate 2468 [5]; 1× MIC,47.75 h
same,rate constant of cell death within 24 h,MRSA isolate 2468 [5]; 1× MIC,-0.06 h⁻¹
same,killing half-time,MRSA isolate 2468 [5]; 2× MIC,13.21 h
same,rate constant of cell death within 24 h,MRSA isolate 2468 [5]; 2× MIC,-0.23 h⁻¹
same,inhibition rate,"MRSA isolate 2468 [5]; 4× MIC, during 3–12 h",0.32 h⁻¹
same,killing half-time,"MRSA isolate 2468 [5]; 4× MIC, 95% CI 5.67 to 18.47",9.78 h
same,rate constant of cell death within 24 h,"MRSA isolate 2468 [5]; 4× MIC, 95% CI −0.17 to −0.36",-0.27 h⁻¹
same,inhibition rate,"MRSA isolate 2468 [5]; after 6 h of treatment, 1× MIC",0.06 h⁻¹
same,inhibition rate,"MRSA isolate 2468 [5]; after 6 h of treatment, 2× MIC",0.24 h⁻¹
same,reduction rate of viable cells,MRSA isolate 2468 [5]; first 3 h,0.10 h⁻¹
same,killing half-time,S. aureus TISTR 517 [6]; 1× MIC,25.36 h
same,rate constant of cell death within 24 h,S. aureus TISTR 517 [6]; 1× MIC,-0.11 h⁻¹
same,killing half-time,S. aureus TISTR 517 [6]; 2× MIC,11.08 h
same,rate constant of cell death within 24 h,S. aureus TISTR 517 [6]; 2× MIC,-0.26 h⁻¹
same,time of eradication effect,S. aureus TISTR 517 [6]; 2× MIC,24 h
same,reduction rate of viable cells,"S. aureus TISTR 517 [6]; 3-24 h, 1× MIC",0.12 h⁻¹
same,reduction rate of viable cells,"S. aureus TISTR 517 [6]; 3-24 h, 2× MIC",0.23 h⁻¹
same,reduction rate of viable cells,"S. aureus TISTR 517 [6]; 3-24 h, 4× MIC",0.31 h⁻¹
same,killing half-time,"S. aureus TISTR 517 [6]; 4× MIC, 95% CI 5.35 to 20.12",9.80 h
same,rate constant of cell death within 24 h,"S. aureus TISTR 517 [6]; 4× MIC, 95% CI −0.16 to −0.38",-0.27 h⁻¹
same,time of eradication effect,S. aureus TISTR 517 [6]; 4× MIC,18 h
same,reduction rate of viable cells,"S. aureus TISTR 517 [6]; first 3 h, all peptide concentrations (1×, 2×, 4× MIC)",0.14 h⁻¹
same,increase of genetic content in the supernatant (A260),"MRSA isolate 2468 [7]; 30 min, 1×-4× MIC",1.15–1.47 times
same,inhibition by viable cell count,"MRSA isolate 2468 [7]; 24 h, 1× MIC",34.46 ± 0.64%
same,increase of genetic release (A260),"MRSA isolate 2468 [7]; 24 h, 1×-4× MIC",1.81–2.07 times
same,inhibition by viable cell count,"MRSA isolate 2468 [7]; 24 h, 2× MIC",64.47 ± 3.56%
same,inhibition by viable cell count,"MRSA isolate 2468 [7]; 24 h, 4× MIC",96.13 ± 6.70%
same,cell lysis (OD 625 nm reduction),MRSA isolate 2468 [7]; 1× MIC,12.68 ± 13.57%
same,cell lysis (OD 625 nm reduction),MRSA isolate 2468 [7]; 2× MIC,26.13 ± 9.48%
same,cell lysis (OD 625 nm reduction),MRSA isolate 2468 [7]; 4× MIC,20.75 ± 2.75%
same,increase of genetic content in the supernatant (A260),"S. aureus TISTR 517 [8]; 30 min, 1×-4× MIC",1.09–1.60 times
same,inhibition by viable cell count,"S. aureus TISTR 517 [8]; 24 h, 1× MIC",8.60 ± 0.26%
same,cell lysis,"S. aureus TISTR 517 [8]; 24 h, 1×-4× MIC",more than 39.67%
same,increase of genetic release (A260),"S. aureus TISTR 517 [8]; 24 h, 1×-4× MIC",2.05–2.29 times
same,inhibition by viable cell count,"S. aureus TISTR 517 [8]; 24 h, 2× MIC",67.63 ± 1.96%
same,inhibition by viable cell count,"S. aureus TISTR 517 [8]; 24 h, 4× MIC",94.35 ± 9.78%
same,cells destroyed (OD 625 nm reduction),"S. aureus TISTR 517 [8]; first hour, 1× MIC, PBS pH 7.4 + 4% CAMHB, mean ± SD, triplicate",21.08 ± 1.11%
